Legend:
[1] = molecular target: T1, chymotrypsin (a-chymotrypsin derived from bovine pancreas) (Bos taurus, UniProt P00766); assay: Fluorescence assay using chymotrypsin; type: biochemical; conditions: 2.4 μM probe, 4.6 U chymotrypsin
T1 construct: a-chymotrypsin derived from bovine pancreas; purchased SIGMA C4129-250MG; host or cells: bovine pancreas
Method: 3 μL of a 2.4 mM gPhe-HMRC dimethylsulfoxide (DMSO) solution was dissolved in 3 mL of 0.1 M sodium phosphate buffer (pH 7.4) at a final concentration of 2.4 μM, 4.6 U of chymotrypsin (a-chymotrypsin derived from bovine pancreas: SIGMA C4129-250MG) was added thereto to conduct an enzymatic reaction at 37° C. The excitation wavelength was set to 501 nm.

[2] = system: chymotrypsin activities in pancreatic fluid; assay: In vitro fluorescence assay using human pancreatic fluid (gPhe-HMRG); type: biochemical
Method: (§1) gPhe-HMRG synthesized in Example 1 and gGlu-HMRG, which has a glutamic acid residue, synthesized in Example 2 were used as fluorescent probes to evaluate enzymatic activities of pancreatic fluid obtained from patients of pancreatic cancer or bile duct cancer. 1 μL of a fluorescent probe DMSO solution (1 mM) was dissolved in 180 μL of a 0.1 M sodium phosphate buffer (pH 7.4) at a final concentration of […], 20 μL of a pancreatic fluid was added thereto, and an enzymatic reaction was carried out at 37° C. for 30 minutes. In the case of gPhe-HMRG, a probe solution to which 57 BAEE units of trypsin (bovine pancreas-derived trypsin: SIGMA T1426-100MG) had been added was used to carry out the same enzymatic reaction. In addition, as to inhibitor treatments for comparisons, 1 μL of an aqueous solution (10 mM) of a γ-glutamyltransferase inhibitor (GGs-Top: Wako Pure Chemical 075-05471) in the case of gGlu-HMRG, and 1 μL of a DMSO solution (10 mM) of a chymotrypsin inhibitor (chymostatin: SIGMA C7268) in the case of gPhe-HMRG were each added to probe solutions. For excitation wavelengths and fluorescence wavelengths of a fluorescence measurement device, 478-492 nm and 523-548 nm, respectively, were used.

chymotrypsin = assay: Fluorescence response to drain samples of pancreatic fluid, ascitic fluids and intestinal fluids (gPhe-HMRG, gPhe-HMRG-Try); type: biochemical, human
Method: (§2) Furthermore, response behaviors of the fluorescent probes against body fluids other than pancreatic fluid were compared by using drain samples which were collected from patients who received resectional surgeries of the pancreas. With respect to a total of 76 samples of pancreatic fluid, ascitic fluids and intestinal fluids which were collected from 18 patients, changes in fluorescent intensities were measured for gGlu-HMRG, gPhe-HMRG, and trypsin-added gPhe-HMRG (gPhe-HMRG-Try).
(§3) 180 μL of a probe solution (1.1 μM) was poured into each well of a 96-well microplate reader (SH-8000, Hitachi), and then, 20 μL of a collected sample was added thereto, followed by mixing them. The sample was incubated at 37° C., and fluorescence responses were measured after 5 minutes, 15 minutes and 30 minutes. Trypsin was added to gPhe-HMRG-Try at a final concentration of 0.525 μBTEE/μL. For an excitation wavelength and a fluorescence wavelength for the fluorescence measurement device, 490 nm and 520 nm, respectively, were used. The obtained results of fluorescence responses are shown as average values of respective samples in FIG. 5.

[3] = Fluorescent imaging of human pancreatic fluid; conditions: for visualization of adhesion points of the pancreatic fluids: 50 μM probe solution sprayed on paper (gPhe-HMRG with trypsin), after several minutes from spraying
Method: Fluorescent imaging of pancreatic fluids on an excised surface of the pancreas was carried out by using gPhe-HMRG and gGlu-HMRG as fluorescent probes. In consideration of, for example, cases where materials retaining pancreatic fluids, which are measurement subjects, are used during surgeries, wiping towels and filter paper for experiments (those having low background fluorescence from paper itself), which had been used in clinical practice, were used as the materials. For specific procedures, apiece of the pancreas immediately after being excised by surgical operations was collected, the wiping towel and filter paper was adhered to its excised surface, thereby adhering the pancreatic fluid thereto. Then, probe solutions of gPhe-HMRG (including trypsin) and gGlu-HMRG were sprayed to the adhered paper to start imaging. For the probe solutions, 10 μL of a DMSO solution (10 mM) of each probe was dissolved in 2 mL of RPMI 1640 medium (GINBO 11835) at a final concentration of 50 μM, and, for gPhe-HMRG, a solution obtained by adding trypsin (52.6 BTEE units) thereto was used. For an excitation filter and a fluorescence filter, long path filters of 435-480 nm and 490 nm, respectively, were used.

[4] = molecular target: T2, γ-glutamyltransferase activity in a pancreatic fluid (Homo sapiens, UniProt P19440); assay: In vitro fluorescence assay using human pancreatic fluid (gGlu-HMRG); type: biochemical; conditions: 0.9 μM probe, 37° C., 30 minutes
T2 construct: pancreatic fluid obtained from patients of pancreatic cancer or bile duct cancer; from tissue; host or cells: pancreatic fluid from patients with pancreatic cancer or bile duct cancer
Method: as §1

γ-glutamyltransferase = assay: Fluorescence response to drain samples of pancreatic fluid, ascitic fluids and intestinal fluids (gGlu-HMRG); type: biochemical, human; conditions: drain samples from patients, 37° C., 5, 15, 30 minutes
Method: as §2, §3

T2 sequence (P19440 1-380 limits assumed): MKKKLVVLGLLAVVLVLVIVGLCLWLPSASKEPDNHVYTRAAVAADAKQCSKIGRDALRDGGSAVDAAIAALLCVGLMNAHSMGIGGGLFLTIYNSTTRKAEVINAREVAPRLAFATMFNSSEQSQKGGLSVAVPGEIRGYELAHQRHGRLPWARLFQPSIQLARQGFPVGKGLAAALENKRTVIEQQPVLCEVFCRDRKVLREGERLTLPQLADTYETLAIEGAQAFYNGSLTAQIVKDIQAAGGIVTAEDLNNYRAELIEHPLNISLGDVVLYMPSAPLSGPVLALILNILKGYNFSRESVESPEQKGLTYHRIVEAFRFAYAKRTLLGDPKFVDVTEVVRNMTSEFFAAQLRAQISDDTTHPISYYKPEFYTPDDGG
T2 sequence (P19440 381-569 limits assumed): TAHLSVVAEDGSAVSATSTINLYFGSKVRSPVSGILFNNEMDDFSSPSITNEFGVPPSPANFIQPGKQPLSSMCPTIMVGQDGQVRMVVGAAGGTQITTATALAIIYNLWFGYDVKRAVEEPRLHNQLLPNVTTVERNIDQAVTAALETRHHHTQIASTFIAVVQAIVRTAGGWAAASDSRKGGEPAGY

Row | Substance | change in absorption by chymotrypsin addition ([1]; 0.1 M sodium phosphate buffer pH 7.4, 37° C.) | change in fluorescent intensity by chymotrypsin addition ([1]; pH 7.4, 37° C., excitation 501 nm) | time until fluorescent intensity reached saturation after chymotrypsin addition ([1]; fluorescence at 524 nm, 37° C.) | change in fluorescent intensity by addition of pancreatic fluid sample, trypsin included ([2]; 0.9 μM probe, 57 BAEE units trypsin, pancreatic fluid samples No. 1 to No. 5, 37° C., 30 minutes) | fluorescence response against chymotrypsinogen (precursor) ([2]; pancreatic fluid without trypsin addition) | fluorescent intensity when chymostatin (chymotrypsin inhibitor) was added ([2]; pancreatic fluid, trypsin, chymostatin added, 37° C., 30 minutes) | fluorescent response to body fluids, trypsin not added (chymotrypsin; pancreatic fluid, ascitic fluids, intestinal fluids from patients, 37° C., 5, 15, 30 minutes) | fluorescence response compared with gGlu-HMRG (chymotrypsin; trypsin added) | visualization of adhesion points of the pancreatic fluids [3] | fluorescence response at adhesion points of body fluids other than the pancreatic fluid ([3]; 50 μM probe with trypsin sprayed on paper) | change in fluorescent intensity by addition of pancreatic fluid sample ([4]; 20 μL pancreatic fluid (samples No. 1 to No. 5), no inhibitor) | fluorescent intensity when γ-glutamyltransferase-specific inhibitor (GGs-Top) was added ([4]; pancreatic fluid, inhibitor added) | fluorescent response to ascitic fluids (γ-glutamyltransferase) | fluorescent response to pancreatic fluids (γ-glutamyltransferase) | fluorescent response to intestinal fluids (γ-glutamyltransferase; compared with pancreatic fluids)
1 | glutamyl-phenylalanine hydroxymethyl rhodamine green [gPhe-HMRG] | significant increases | significant increases | about 600 seconds | remarkable increases in fluorescent intensities were observed in all the pancreatic fluid samples | hardly showed a fluorescence response | significantly decreased | significant fluorescent responses were not observed for all the body fluids | superior | successfully accomplished | any fluorescence response was not observed | – | – | – | – | –
2 | γ-glutamyl hydroxymethyl rhodamine green [gGlu-HMRG] | – | – | – | – | – | – | – | – | successfully accomplished | – | increases in fluorescent intensities were observed in all pancreatic fluid samples | significantly decreased | increases in fluorescent intensities were observed | an increase in fluorescent intensities was observed | a larger increase in fluorescent intensities was observed for intestinal fluids, than for the case of pancreatic fluids
